{
  "source": "patent US5876751A",
  "about": "“Antispasmodic and antinflammatory composition and a process for the manufacture thereof” (priority 1996, dated 1999)",
  "key": {"[1]": {"conditions": "cited from earlier work"}, "[2]": {"conditions": "in vivo; cited from earlier work"}, "rat colon": {"tested_on": "rat colon", "experiment": "Inhibition of acetylcholine-induced contraction in isolated distal portion of colon of rat, without and with diclofenac sodium", "conditions": "for inhibition at 0.0005 µg/mL / inhibition at 0.001 µg/mL / inhibition at 0.002 µg/mL / inhibition at 0.01 µg/mL / inhibition at 0.02 µg/mL / inhibition at 0.04 µg/mL / inhibition at 0.08 µg/mL: Rattus norvegicus, Ach 100 ng/ml; for inhibition at 0.0005 µg/mL: fenpiverinium bromide 0.5 ng/ml; for inhibition at 0.001 µg/mL: fenpiverinium bromide 1.0 ng/ml; for inhibition at 0.002 µg/mL: fenpiverinium bromide 2.0 ng/ml; for inhibition at 0.01 µg/mL: pitofenone HCl 10 ng/ml; for inhibition at 0.02 µg/mL: pitofenone HCl 20 ng/ml; for inhibition at 0.04 µg/mL: pitofenone HCl 40 ng/ml; for inhibition at 0.08 µg/mL: pitofenone HCl 80 ng/ml", "method": "In order to see the effect of NSAID on the antispasmodic activity of pitifenone hydrochloride and fenpiverinium bromide an experiment was conducted on standard isolated tissues of experimental animal. The tissue chosen for the experiment was the distal portion of colon of rat. The NSAID selected for the experiment was diclofenac sodium. The percentage inhibition of acetylcholine-induced contraction (at dosage level of 100 ng/m) was studied with varied concentration of pitofenone hydrochloride in the dose range of 10-80 nano gm/ml. […] The data obtained in the experiment is collected in Table -2."}, "[3]": {"conditions": "Brogden et al, Drugs 20;24-48 (1980); cited from earlier work"}, "[4]": {"conditions": "before diclofenac Na, read-out: Percentage inhibition of Ach induced contraction, before diclofenac Na"}, "[5]": {"conditions": "with diclofenac sodium (20 μgm/ml), read-out: Percentage inhibition of Ach induced contraction, after diclofenac Na"}, "[6]": {"conditions": "with diclofenac sodium 20 μg/ml, read-out: Percentage inhibition of Ach induced contraction, after diclofenac Na"}},
  "note": "Counter-ions that a name gives are not always drawn. Like-named read-outs stand apart in the source and are kept apart here.",
  "data": [
    {"smiles": "O=C(O)Cc1ccccc1Nc1c(Cl)cccc1Cl", "note": "[diclofenac sodium]", "values": [
      {"measurement": "side effects vs pethidine intramuscular", "setting": "[1]; intramuscular, acute renal colic", "result": "fewer side effects"},
      {"measurement": "effectiveness in the management of acute renal colic vs pethidine intramuscular", "setting": "[1]; intramuscular", "result": "more effective than narcotic analgesic like pethidine intramuscular"}
    ]},
    {"smiles": "Cc1c(N(C)CS(=O)(=O)O)c(=O)n(-c2ccccc2)n1C", "note": "[Analgin]", "values": [
      {"measurement": "bone marrow depression", "setting": "[2]", "result": "implicated in causing bone marrow depression"}
    ]},
    {"smiles": "C[N+]1(CCC(C(N)=O)(c2ccccc2)c2ccccc2)CCCCC1", "note": "[Fenpiverinium Bromide, fenpiverinium bromide]", "values": [
      {"measurement": "inhibition at 0.0005 µg/mL", "setting": "rat colon; [4]", "result": 43.8, "unit": "%"},
      {"measurement": "inhibition at 0.0005 µg/mL", "setting": "rat colon; [5]", "result": 100, "unit": "%"},
      {"measurement": "inhibition at 0.001 µg/mL", "setting": "rat colon; [4]", "result": 78.7, "unit": "%"},
      {"measurement": "inhibition at 0.001 µg/mL", "setting": "rat colon; [5]", "result": 100, "unit": "%"},
      {"measurement": "inhibition at 0.002 µg/mL", "setting": "rat colon; [4]", "result": 100, "unit": "%"},
      {"measurement": "inhibition at 0.002 µg/mL", "setting": "rat colon; [5]", "result": 100, "unit": "%"}
    ]},
    {"smiles": "O=C(O)Cc1ccccc1Nc1c(Cl)cccc1Cl", "note": "[diclofenac]", "values": [
      {"measurement": "potentiation of antispasmodic action of pitofenone hydrochloride and fenpiverinium bromide", "setting": "rat colon; general statement of findings", "result": "potentiates the antispasmodic action of pitofenone hydrochloride and fenpiverinium bromide several times"},
      {"measurement": "action with pitofenone hydrochloride as an antispasmodic", "setting": "rat colon; rat colon, diclofenac sodium 20 μg/ml, pitofenone HCl 10-80 ng/ml", "result": "synergistic (potentiating) action"},
      {"measurement": "action with fenpiverinium bromide as an antispasmodic", "setting": "rat colon; rat colon, diclofenac sodium 20 μgm/ml, fenpiverinium bromide 0.5-2 ng/ml", "result": "synergistic (potentiating) action"},
      {"measurement": "use in painful non-rheumatic syndromes", "setting": "[1]; biliary colic (Grossi et al.), acute renal colic (Garcia Alonso et al.)", "result": "of use in painful non-rheumatic syndromes"},
      {"measurement": "reported pharmacological activity", "setting": "[3]", "result": "anti inflammatory activity, analgesic activity and anti pyretic activity"}
    ]},
    {"smiles": "COC(=O)c1ccccc1C(=O)c1ccc(OCCN2CCCCC2)cc1", "note": "[Pitofenone Hcl, pitofenone hydrochloride]", "values": [
      {"measurement": "inhibition at 0.01 µg/mL", "setting": "rat colon; [4]", "result": 0, "unit": "%"},
      {"measurement": "inhibition at 0.01 µg/mL", "setting": "rat colon; [6]", "result": 100, "unit": "%"},
      {"measurement": "inhibition at 0.02 µg/mL", "setting": "rat colon; [4]", "result": 0, "unit": "%"},
      {"measurement": "inhibition at 0.02 µg/mL", "setting": "rat colon; [6]", "result": 100, "unit": "%"},
      {"measurement": "inhibition at 0.04 µg/mL", "setting": "rat colon; [4]", "result": 0, "unit": "%"},
      {"measurement": "inhibition at 0.04 µg/mL", "setting": "rat colon; [6]", "result": 100, "unit": "%"},
      {"measurement": "inhibition at 0.08 µg/mL", "setting": "rat colon; [4]", "result": 20.2, "unit": "%"},
      {"measurement": "inhibition at 0.08 µg/mL", "setting": "rat colon; [6]", "result": 100, "unit": "%"}
    ]}
  ]
}
